These results are taken from patent US10766865B2, “PKM2 modulators and methods for their use” (TOLERO PHARMACEUTICALS, INC., priority 2012, dated 2020).

One experiment addresses PKM2 (Homo sapiens, UniProt P14618). Description: PKM2 Biochemical Assay. The settings on record: for Max. Resp.: % maximum response in a biochemical assay as compared with Fructose 1,6-bisphosphate.
The test system of the next experiment is PC3 cells. Description: Cell Proliferation Assay, PC3. The class given is cell-based. Particulars: Homo sapiens, PC-3; PC3, BME media lacking nonessential amino acids, 72 hours, ATPlite; read-out: Percent viability (EC50), Average. As to the method: (§1) Cells were seeded at 5000 cells per well (in 96-well plate) in BME media lacking nonessential amino acids+5% dialyzed serum. After 18 hours, DMSO or compound in 0.1% final concentration DMSO was added.
(§2) Percent viability (EC50) of A549 and PC3 cells was tested against certain exemplary compounds according to the above general procedures.

The next experiment deals with A549 cells. The experiment can be described thus: Cell Proliferation Assay, A549. The class given is cell-based. Particulars: Homo sapiens; A549, BME media lacking nonessential amino acids, 72 hours, ATPlite; read-out: Percent viability (EC50), Average. On the procedure:
as §1, §2

pEC50: −log10 of the molar value.

Sequence of PKM2 (P14618 whole entry): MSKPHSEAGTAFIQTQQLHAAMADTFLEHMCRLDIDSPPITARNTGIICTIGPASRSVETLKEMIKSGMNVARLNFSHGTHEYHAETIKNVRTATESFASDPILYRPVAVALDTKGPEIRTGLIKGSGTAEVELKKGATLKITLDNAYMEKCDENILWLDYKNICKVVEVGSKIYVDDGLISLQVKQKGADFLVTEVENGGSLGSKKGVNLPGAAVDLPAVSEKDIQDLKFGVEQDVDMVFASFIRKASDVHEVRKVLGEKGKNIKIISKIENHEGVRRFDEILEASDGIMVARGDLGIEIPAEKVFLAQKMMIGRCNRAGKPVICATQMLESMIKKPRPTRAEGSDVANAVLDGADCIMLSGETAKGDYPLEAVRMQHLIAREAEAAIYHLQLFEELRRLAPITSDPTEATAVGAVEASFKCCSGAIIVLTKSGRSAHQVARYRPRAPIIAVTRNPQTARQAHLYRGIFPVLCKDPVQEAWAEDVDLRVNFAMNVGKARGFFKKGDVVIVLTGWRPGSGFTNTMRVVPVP

For the molecule `CO[C@H]1CC[C@H](N(Cc2cccc(N)c2)C(=O)c2cc(C(F)(F)F)n[nH]2)CC1` [Example 54], the “Max. Resp.” value at PKM2 was determined as 93%. The figures for the pEC50 in the experiment on PC3 cells and in the experiment with A549 cells were 6.72 and 6.99, respectively.
In the case of `Nc1cccc(F)c1CN(CCC1CCS(=O)(=O)CC1)C(=O)c1cc(C(F)(F)F)n[nH]1` [Example 91, N-(2-amino-6-fluorobenzyl)-N-(2-(1,1-dioxidotetrahydro-2H-thiopyran-4-yl)ethyl)-3-(trifluoromethyl)-1H-pyrazole-5-carboxamide], the pEC50 with PC3 cells is 7.33; in the experiment on A549 cells it was 7.69.
`O=C(c1cc(C(F)(F)F)n[nH]1)N(CCC1CCS(=O)(=O)CC1)Cc1ccccc1Cl` [Example 75, N-(2-chlorobenzyl)-N-(2-(1,1-dioxidotetrahydro-2H-thiopyran-4-yl)ethyl)-3-(trifluoromethyl)-1H-pyrazole-5-carboxamide]: the “Max. Resp.” value at PKM2 came out at 102%. Besides, the pEC50 in the experiment with PC3 cells was 6.65; in the experiment with A549 cells, 6.83.
For `Nc1cccc(Cl)c1CN(CCN1CCCOCC1)C(=O)c1cc(C(F)(F)F)n[nH]1` [Example 239, N-(2-(1,4-oxazepan-4-yl)ethyl)-N-(2-amino-6-chlorobenzyl)-3-(trifluoromethyl)-1H-pyrazole-5-carboxamide], the “Max. Resp.” value on PKM2 worked out at 100%. The values for the pEC50 with PC3 cells and in the experiment with A549 cells were 6.89 and 7.14, respectively.
The corresponding values for `O=C(c1cc(C(F)(F)F)n[nH]1)N(CCC1CCS(=O)(=O)C1)Cc1ccccc1Cl` (stereo not shown) [Example 62, N-(2-chlorobenzyl)-N-(2-(1,1-dioxidotetrahydrothiophen-3-yl)ethyl)-3-(trifluoromethyl)-1H-pyrazole-5-carboxamide] are 105%, 6.78 and 6.97.
Consider `O=C(c1cc(C(F)(F)F)n[nH]1)N(Cc1cccc2[nH]cnc12)CC1CCC1` [Example 123, N-((1H-benzo[d]imidazol-4-yl)methyl)-N-(cyclobutylmethyl)-3-(trifluoromethyl)-1H-pyrazole-5-carboxamide], for which the “Max. Resp.” value on PKM2 is 100%.
On the same count and under the same terms, the same measure for `COc1c(N)cccc1CN(CCN1CCCCCC1)C(=O)c1cc(C(F)(F)F)n[nH]1` [Example 217, N-(3-amino-2-methoxybenzyl)-N-(2-(azepan-1-yl)ethyl)-3-(trifluoromethyl)-1H-pyrazole-5-carboxamide]: 100%.
Same read-out and setting: the same measure for `CCN(CC)CCN(Cc1ccccc1Cl)C(=O)c1[nH]nc(Cl)c1F` [Example 193, N-(2-chlorobenzyl)-3-chloro-N-(2-(diethylamino)ethyl)-4-fluoro-1H-pyrazole-5-carboxamide]: 58%; for `O=C(c1cc(C(F)(F)F)n[nH]1)N(CCC1CCS(=O)(=O)C1)Cc1ccccn1` (stereo not shown) [Example 88]: 96%; for `O=C(c1cc(C(F)(F)F)n[nH]1)N(CCN1CCCCCC1)Cc1c(F)cccc1F` [Example 198, N-(2,6-difluorobenzyl)-N-(2-(azepan-1-yl)ethyl)-3-(trifluoromethyl)-1H-pyrazole-5-carboxamide]: 100%.
`O=C(c1cc(C(F)(F)F)n[nH]1)N(CCN1CCCCCC1)Cc1c(Cl)cccc1[N+](=O)[O-]` [Example 211, N-(2-chloro-6-nitrobenzyl)-N-(2-(azepan-1-yl)ethyl)-3-(trifluoromethyl)-1H-pyrazole-5-carboxamide]: on PKM2, the “Max. Resp.” value was 100%.
As for `N#Cc1cc(C(=O)N(Cc2ccc(O)cc2F)CC2CCC2)[nH]n1` [Example 2, 3-CYANO-N-(CYCLOBUTYLMETHYL)-N-(2-FLUORO-4-HYDROXYBENZYL)-1H-PYRAZOLE-5-CARBOXAMIDE], the “Max. Resp.” value on PKM2 stood at 39%.
Same read-out and setting: the same measure for `CCCN(CC)CCN(Cc1ccccc1Cl)C(=O)c1cc(C(F)(F)F)n[nH]1` [Example 209, N-(2-chlorobenzyl)-N-(2-(ethyl-propylamino)ethyl)-3-(trifluoromethyl)-1H-pyrazole-5-carboxamide]: 100%.
Regarding `CC1CCN(CCN(Cc2ccccc2Cl)C(=O)c2cc(C(F)(F)F)n[nH]2)CC1` [Example 190, N-(2-chlorobenzyl)-3-(trifluoromethyl)-N-(2-(4-methylpiperidin-1-yl)ethyl)-1H-pyrazole-5-carboxamide], the “Max. Resp.” value on PKM2 was 100%.
With `O=C(c1cc(C(F)(F)F)n[nH]1)N(CCC1CCOC1)Cc1c(Cl)cccc1Cl` (stereo not shown) [Example 33], the “Max. Resp.” value on PKM2 stood at 81%.
The same measure, in the same setting: the same measure for `O=C(c1cc(C(F)(F)F)n[nH]1)N(CCC1CCS(=O)(=O)C1)Cc1ncccc1Cl` (stereo not shown) [Example 92]: 74%; for `CCNCCN(Cc1ccccc1F)C(=O)c1cc(C(F)(F)F)n[nH]1` [Example 155, N-(2-fluorobenzyl)-N-(2-(ethylamino)ethyl)-3-(trifluoromethyl)-1H-pyrazole-5-carboxamide]: 100%.
As for `O=C(c1cc(C(F)(F)F)n[nH]1)N(CCN1CCCC1)Cc1cccc2[nH]ccc12` [Example 164, N-((1H-indol-4-yl)methyl)-3-(trifluoromethyl)-N-(2-(pyrrolidin-1-yl)ethyl)-1H-pyrazole-5-carboxamide], at PKM2, the “Max. Resp.” value came out at 100%.
Same read-out and setting: the same measure for `CCN(CC)CCN(Cc1cc(Cl)ccc1Cl)C(=O)c1cc(C(F)(F)F)n[nH]1` [Example 168, N-(2,5-dichlorobenzyl)-N-(2-(diethylamino)ethyl)-3-(trifluoromethyl)-1H-pyrazole-5-carboxamide]: 100%; for `O=C(c1cc(C(F)(F)F)n[nH]1)N(CCN1CCCCCC1)Cc1cccc2nc[nH]c12` [Example 208, N-((1H-benzo[d]imidazol-7-yl)methyl)-N-(2-(azepan-1-yl)ethyl)-3-(trifluoromethyl)-1H-pyrazole-5-carboxamide]: 100%.
Still for that read-out and setting: the figure for `COC1CCCN(CCN(Cc2c(N)cccc2Cl)C(=O)c2cc(C(F)(F)F)n[nH]2)C1` (stereo not shown) [Example 237, N-(2-amino-6-chlorobenzyl)-3-(trifluoromethyl)-N-(2-(3-methoxypiperidin-1-yl)ethyl)-1H-pyrazole-5-carboxamide] is 100%.
The same measure, in the same setting: the figure for `O=C(c1cc(C(F)(F)F)n[nH]1)N(Cc1ccccc1Cl)CC1CCC1` [Example 127, N-(2-chlorobenzyl)-N-(cyclobutylmethyl)-3-(trifluoromethyl)-1H-pyrazole-5-carboxamide] is 100%.
Regarding `O=C(c1cc(C(F)(F)F)n[nH]1)N(CCN1CCCCC1)Cc1c(F)cccc1Cl` [Example 179, N-(2-chloro-6-fluorobenzyl)-3-(trifluoromethyl)-N-(2-(piperidin-1-yl)ethyl)-1H-pyrazole-5-carboxamide], the “Max. Resp.” value at PKM2 turned out to be 100%.
As for `Nc1cccc(Cl)c1CN(CCN1CC[C@@H](F)C1)C(=O)c1cc(C(F)(F)F)n[nH]1` [Example 242, N-(2-amino-6-chlorobenzyl)-3-(trifluoromethyl)-N-(2-((R)-3-fluoropyrrolidin-1-yl)ethyl)-1H-pyrazole-5-carboxamide], at PKM2, the “Max. Resp.” value worked out at 100%.
The same measure, in the same setting: the figure for `CO[C@H]1CC[C@H](N(Cc2cc(F)ccc2F)C(=O)c2cc(C(F)(F)F)n[nH]2)CC1` [Example 50] is 90%; for `CC1CCCCN1CCN(Cc1ccccc1Cl)C(=O)c1cc(C(F)(F)F)n[nH]1` (stereo not shown) [Example 192, N-(2-chlorobenzyl)-3-(trifluoromethyl)-N-(2-(2-methylpiperidin-1-yl)ethyl)-1H-pyrazole-5-carboxamide] it is 100%; for `CCN(CC)CCN(Cc1cccc(F)c1Cl)C(=O)c1cc(C(F)(F)F)n[nH]1` [Example 182, N-(2-chloro-3-fluorobenzyl)-N-(2-(diethylamino)ethyl)-3-(trifluoromethyl)-1H-pyrazole-5-carboxamide] it is 100%.
On the same count and under the same terms, the figure for `CC1CCCN(CCN(Cc2ccccc2F)C(=O)c2cc(C(F)(F)F)n[nH]2)C1` (stereo not shown) [Example 201, N-(2-fluorobenzyl)-3-(trifluoromethyl)-N-(2-(3-methylpiperidin-1-yl)ethyl)-1H-pyrazole-5-carboxamide] is 100%.
On PKM2, `CC(C)(O)CCN(Cc1ccc(O)cc1F)C(=O)c1cc(C(F)(F)F)n[nH]1` [Example 131, N-(2-fluoro-4-hydroxybenzyl)-3-(trifluoromethyl)-N-(3-hydroxy-3-methylbutyl)-1H-pyrazole-5-carboxamide] returned an AC50 of 23000 nM.
`O=C(c1cc(C(F)(F)F)n[nH]1)N(Cc1ccccc1F)C1CCCCC1` [Example 153, N-(2-fluorobenzyl)-N-cyclohexyl-3-(trifluoromethyl)-1H-pyrazole-5-carboxamide]: the “Max. Resp.” value at PKM2 worked out at 57%.
Same read-out and setting: the same measure for `O=C(c1cc(C(F)(F)F)n[nH]1)N(Cc1ccccc1F)CC1CCOCC1` [Example 45]: 52%.
Same read-out and setting: the figure for `O=C(c1cc(C(F)(F)F)n[nH]1)N(CCC1CCS(=O)(=O)CC1)Cc1c(F)cccc1F` [Example 85] is 100%; for `CCOCCN(Cc1c(Cl)cccc1Cl)C(=O)c1cc(C(F)(F)F)n[nH]1` [Example 42] it is 76%.
The same measure, in the same setting: the same measure for `Nc1cccc(Cl)c1CN(CCN1CCCC1)C(=O)c1cc(C(F)(F)F)n[nH]1` [Example 222, N-(2-amino-6-chlorobenzyl)-3-(trifluoromethyl)-N-(2-(pyrrolidin-1-yl)ethyl)-1H-pyrazole-5-carboxamide]: 100%; for `O=C(c1cc(C(F)(F)F)n[nH]1)N(CCC1CCSCC1)Cc1ccccc1F` [Example 79]: 95%; for `O=C(c1cc(C(F)(F)F)n[nH]1)N(CCN1CCS(=O)(=O)CC1)Cc1cccc(F)c1F` [Example 111]: 64%.
Regarding `O=C(c1cc(C(F)(F)F)n[nH]1)N(Cc1ccccc1Cl)CC1CCS(=O)(=O)CC1` [Example 72], at PKM2, the “Max. Resp.” value is listed as 22%.
